Measurements: patent US10420341B2, “Herbicidal phenylpyrimidines” (BASF SE, priority 2015, dated 2019)

What was measured:
AMARE = assay: greenhouse post-emergence herbicidal test; assay type: in vivo, Amaranthus retroflexus; details: post-emergence method, scale from 0 to 100
From the text: (§1) The seeds of the test plants were sown separately for each species. For the post-emergence treatment, the test plants were first grown to a height of 3 to 15 cm, depending on the plant habit, and only then treated with the active ingredients which had been suspended or emulsified in water. For this purpose, the test plants were either sown directly and grown in the same containers, or they were first grown separately as seedlings and transplanted into the test containers a few days prior to treatment. Depending on the species, the plants were kept at 10-25° C. or 20-35° C., respectively. The test period extended over 2 to 4 weeks. During this time, the plants were tended, and their response to the individual treatments was evaluated. Evaluation was carried out using a scale from 0 to 100. 100 means no emergence of the plants, or complete destruction of at least the aerial moieties, and 0 means no damage, or normal course of growth. […] The plants used in the greenhouse experiments were of the following species: [table]

ECHCG [1] = assay: greenhouse post-emergence herbicidal test; assay type: in vivo, Echinocloa crus-galli; details: post-emergence method, scale from 0 to 100
Summary of the method: (§2)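 Read-out is a visual 0–100 injury rating, 100 meaning complete destruction of at least aerial parts and 0 meaning normal growth. It was taken over 2–4 weeks after plants 3–15 cm tall were treated with compound suspended or emulsified in water.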

APESV = assay: greenhouse pre-emergence herbicidal test; assay type: in vivo, Apera spica-venti; details: pre-emergence method, scale from 0 to 100
Summary of the method: (§3)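 Compounds suspended or emulsified in water, sprayed pre-emergence directly after sowing; containers covered until rooting, kept at 10-25 °C or 20-35 °C by species. Damage scored 0-100 (100 = no emergence or complete destruction of aerial parts) after 2 to 4 weeks.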

ECHCG [2] = assay: greenhouse pre-emergence herbicidal test; assay type: in vivo, Echinocloa crus-galli; details: pre-emergence method, scale from 0 to 100
Summary of the method: as §3

ALOMY = assay: greenhouse post-emergence herbicidal test; assay type: in vivo, Alopercurus myosuroides; details: post-emergence method, scale from 0 to 100
Summary of the method: as §2

AVEFA = assay: greenhouse post-emergence herbicidal test; assay type: in vivo, Avena fatua; details: post-emergence method, scale from 0 to 100
From the text: as §1

POLCO = assay: greenhouse post-emergence herbicidal test; assay type: in vivo, Polygonum convolvulus; details: post-emergence method, application rate 500 g/ha, scale from 0 to 100
From the text: as §1

## Cc1ccccc1-c1cnc(OC(C)C)nc1C(=O)O [example 72]
AMARE; application rate 500 g/ha
  herbicidal activity against AMARE: very good (a very good herbicidal activity is given at values of at least 85)
ECHCG [1]; application rate 500 g/ha
  herbicidal activity against ECHCG: very good (a very good herbicidal activity is given at values of at least 85)

## CSc1ncc(-c2cc(C)ccc2C)c(C(=O)O)n1 [example 92]
AMARE; application rate 2000 g/ha
  herbicidal activity against AMARE: very good (a very good herbicidal activity is given at values of at least 85)
ECHCG [1]; application rate 2000 g/ha
  herbicidal activity against ECHCG: good (A good herbicidal activity is given at values of at least 70)
APESV; application rate 2000 g/ha
  herbicidal activity against APESV: good (A good herbicidal activity is given at values of at least 70)
ECHCG [2]; application rate 2000 g/ha
  herbicidal activity against ECHCG: very good (a very good herbicidal activity is given at values of at least 85)

## CSc1ncc(-c2cc(C(F)(F)F)ccc2C)c(C(=O)O)n1 [example 93]
AMARE; application rate 2000 g/ha
  herbicidal activity against AMARE: very good (a very good herbicidal activity is given at values of at least 85)

## CSc1ncc(-c2ccc(C)cc2C)c(C(=O)O)n1 [example 97]
AMARE; application rate 2000 g/ha
  herbicidal activity against AMARE: very good (a very good herbicidal activity is given at values of at least 85)
ECHCG [1]; application rate 2000 g/ha
  herbicidal activity against ECHCG: good (A good herbicidal activity is given at values of at least 70)

## CSc1ncc(-c2cccc(C)c2C)c(C(=O)O)n1 [example 102]
AMARE; application rate 2000 g/ha
  herbicidal activity against AMARE: very good (a very good herbicidal activity is given at values of at least 85)

## CSc1ncc(-c2ccccc2C(C)C)c(C(=O)O)n1 [example 103]
AMARE; application rate 2000 g/ha
  herbicidal activity against AMARE: very good (a very good herbicidal activity is given at values of at least 85)
ECHCG [1]; application rate 2000 g/ha
  herbicidal activity against ECHCG: very good (a very good herbicidal activity is given at values of at least 85)
ECHCG [2]; application rate 2000 g/ha
  herbicidal activity against ECHCG: good (A good herbicidal activity is given at values of at least 70)

## COc1ccc(C(F)(F)F)cc1-c1cnc(SC)nc1C(=O)O [example 107]
AMARE; application rate 2000 g/ha
  herbicidal activity against AMARE: very good (a very good herbicidal activity is given at values of at least 85)

## COc1ccc(OC)c(-c2cnc(SC)nc2C(=O)O)c1 [example 108]
AMARE; application rate 2000 g/ha
  herbicidal activity against AMARE: very good (a very good herbicidal activity is given at values of at least 85)
ECHCG [2]; application rate 2000 g/ha
  herbicidal activity against ECHCG: very good (a very good herbicidal activity is given at values of at least 85)

## CCSc1ccccc1-c1cnc(SC)nc1C(=O)O [example 113]
AMARE; application rate 2000 g/ha
  herbicidal activity against AMARE: very good (a very good herbicidal activity is given at values of at least 85)

## Cc1ccccc1-c1cnc([S+](C)[O-])nc1C(=O)O (stereo not shown) [example 126]
AMARE; application rate 2000 g/ha
  herbicidal activity against AMARE: very good (a very good herbicidal activity is given at values of at least 85)

## Cc1cc(-c2cnc(C3CC3)nc2C(=O)O)c(C)cc1F [example 167]
AMARE; application rate 100 g/ha
  herbicidal activity against AMARE: good (A good herbicidal activity is given at values of at least 70)
ECHCG [1]; application rate 100 g/ha
  herbicidal activity against ECHCG: very good (a very good herbicidal activity is given at values of at least 85)
APESV; application rate 100 g/ha
  herbicidal activity against APESV: very good (a very good herbicidal activity is given at values of at least 85)
ECHCG [2]; application rate 100 g/ha
  herbicidal activity against ECHCG: very good (a very good herbicidal activity is given at values of at least 85)

## CCc1ccccc1-c1cnc(C2CC2)nc1C(=O)O [example 174]
AMARE; application rate 500 g/ha
  herbicidal activity against AMARE: very good (a very good herbicidal activity is given at values of at least 85)
ECHCG [1]; application rate 500 g/ha
  herbicidal activity against ECHCG: very good (a very good herbicidal activity is given at values of at least 85)
APESV; application rate 500 g/ha
  herbicidal activity against APESV: very good (a very good herbicidal activity is given at values of at least 85)
ECHCG [2]; application rate 500 g/ha
  herbicidal activity against ECHCG: very good (a very good herbicidal activity is given at values of at least 85)

## COC(=O)c1nc(C2CC2)ncc1-c1cccc(Cl)c1Cl [example 211]
AMARE; application rate 1000 g/ha
  herbicidal activity against AMARE: very good (a very good herbicidal activity is given at values of at least 85)
ALOMY; application rate 1000 g/ha
  herbicidal activity against ALOMY: very good (a very good herbicidal activity is given at values of at least 85)

## COC(=O)c1nc(C2CC2)ncc1-c1c(Br)ccc(OC)c1Cl [example 212]
AMARE; application rate 500 g/ha
  herbicidal activity against AMARE: very good (a very good herbicidal activity is given at values of at least 85)
ECHCG [1]; application rate 500 g/ha
  herbicidal activity against ECHCG: very good (a very good herbicidal activity is given at values of at least 85)

## CCc1ccccc1-c1cnc(C2CC2)nc1C(=O)OC [example 237]
AMARE; application rate 1000 g/ha
  herbicidal activity against AMARE: very good (a very good herbicidal activity is given at values of at least 85)
ECHCG [1]; application rate 1000 g/ha
  herbicidal activity against ECHCG: very good (a very good herbicidal activity is given at values of at least 85)
ECHCG [2]; application rate 1000 g/ha
  herbicidal activity against ECHCG: very good (a very good herbicidal activity is given at values of at least 85)

## COC(=O)c1nc(C2CC2)ncc1-c1ccccc1OC(F)F [example 242]
AMARE; application rate 500 g/ha
  herbicidal activity against AMARE: very good (a very good herbicidal activity is given at values of at least 85)
ECHCG [1]; application rate 500 g/ha
  herbicidal activity against ECHCG: good (A good herbicidal activity is given at values of at least 70)
ECHCG [2]; application rate 500 g/ha
  herbicidal activity against ECHCG: very good (a very good herbicidal activity is given at values of at least 85)

## COc1ccc(OC(=O)c2nc(C3CC3)ncc2-c2ccccc2Cl)cc1 [example 259]
ALOMY; application rate 500 g/ha
  herbicidal activity against ALOMY: very good (a very good herbicidal activity is given at values of at least 85)
ECHCG [1]; application rate 500 g/ha
  herbicidal activity against ECHCG: good (A good herbicidal activity is given at values of at least 70)
AVEFA; application rate 500 g/ha
  herbicidal activity against AVEFA: very good (a very good herbicidal activity is given at values of at least 85)
APESV; application rate 500 g/ha
  herbicidal activity against APESV: very good (a very good herbicidal activity is given at values of at least 85)
ECHCG [2]; application rate 500 g/ha
  herbicidal activity against ECHCG: very good (a very good herbicidal activity is given at values of at least 85)

## COC(=O)CSC(=O)c1nc(C2CC2)ncc1-c1ccccc1Cl [example 278]
POLCO
  herbicidal activity against POLCO: very good (a very good herbicidal activity is given at values of at least 85)
APESV; application rate 500 g/ha
  herbicidal activity against APESV: very good (a very good herbicidal activity is given at values of at least 85)
ECHCG [2]; application rate 500 g/ha
  herbicidal activity against ECHCG: very good (a very good herbicidal activity is given at values of at least 85)

## O=C(SCc1ccccc1)c1nc(C2CC2)ncc1-c1ccccc1Cl [example 280]
AMARE; application rate 500 g/ha
  herbicidal activity against AMARE: very good (a very good herbicidal activity is given at values of at least 85)
APESV; application rate 500 g/ha
  herbicidal activity against APESV: very good (a very good herbicidal activity is given at values of at least 85)

## C=Cc1ncc(-c2ccccc2Cl)c(C(=O)OC)n1 [example 292]
AMARE; application rate 1000 g/ha
  herbicidal activity against AMARE: very good (a very good herbicidal activity is given at values of at least 85)

## COC(=O)c1nc(C2CC2(F)F)ncc1-c1ccccc1Cl (stereo not shown) [example 293]
AMARE; application rate 1000 g/ha
  herbicidal activity against AMARE: good (A good herbicidal activity is given at values of at least 70)

## COC(=O)c1nc(C2CC2)ncc1-c1ccc(OC)cc1F [example 295]
AMARE; application rate 500 g/ha
  herbicidal activity against AMARE: good (A good herbicidal activity is given at values of at least 70)

## O=C(O)c1nc(C2CC2)ncc1-c1ccccc1I [example 311]
ALOMY; application rate 500 g/ha
  herbicidal activity against ALOMY: very good (a very good herbicidal activity is given at values of at least 85)
ECHCG [1]; application rate 500 g/ha
  herbicidal activity against ECHCG: very good (a very good herbicidal activity is given at values of at least 85)
AVEFA; application rate 500 g/ha
  herbicidal activity against AVEFA: very good (a very good herbicidal activity is given at values of at least 85)
APESV; application rate 500 g/ha
  herbicidal activity against APESV: very good (a very good herbicidal activity is given at values of at least 85)
ECHCG [2]; application rate 500 g/ha
  herbicidal activity against ECHCG: very good (a very good herbicidal activity is given at values of at least 85)

## COC(=O)c1nc(C2CC2)ncc1-c1ccccc1I [example 312]
ALOMY; application rate 500 g/ha
  herbicidal activity against ALOMY: very good (a very good herbicidal activity is given at values of at least 85)
ECHCG [1]; application rate 500 g/ha
  herbicidal activity against ECHCG: very good (a very good herbicidal activity is given at values of at least 85)
AVEFA; application rate 500 g/ha
  herbicidal activity against AVEFA: very good (a very good herbicidal activity is given at values of at least 85)
APESV; application rate 500 g/ha
  herbicidal activity against APESV: very good (a very good herbicidal activity is given at values of at least 85)
ECHCG [2]; application rate 500 g/ha
  herbicidal activity against ECHCG: very good (a very good herbicidal activity is given at values of at least 85)

## O=C(O)c1nc(C(F)(F)F)ncc1-c1ccccc1Cl [example 315]
ALOMY; application rate 1000 g/ha
  herbicidal activity against ALOMY: good (A good herbicidal activity is given at values of at least 70)
ECHCG [1]; application rate 1000 g/ha
  herbicidal activity against ECHCG: good (A good herbicidal activity is given at values of at least 70)
AVEFA; application rate 1000 g/ha
  herbicidal activity against AVEFA: good (A good herbicidal activity is given at values of at least 70)
APESV; application rate 1000 g/ha
  herbicidal activity against APESV: good (A good herbicidal activity is given at values of at least 70)
ECHCG [2]; application rate 1000 g/ha
  herbicidal activity against ECHCG: very good (a very good herbicidal activity is given at values of at least 85)
